Like-named read-outs stand apart in the source and are kept apart here.
What was measured:
PC3 = test: Tumour cell proliferation, CellTiter-Glo, 96-hour incubation, PC3; type: cell-based; conditions: Homo sapiens, PC-3, 96 h, read-out: PC3 IC50
Protocol: (§1) In accordance with the invention, the substances were tested in cell-based assays for the ability of the substances of inhibiting tumour cell proliferation after a 96-hour incubation with the substance. Cell viability was tested using the CellTiter-Glo® luminescent cell viability assay (Promega). The cells were sown at a density of 2000-5000 cells/well (depending on the cell line) in 100 μl growth medium on 96-well microtiter plates. For each cell line examined, cells were sown on a separate plate to determine the luminescence at t=0 hours and t=96 hours. After overnight incubation at 37° C., the luminescence values for the t=0 samples were determined. The dose plates for the t=96 hours points in time were treated with substances diluted with growth medium. The cells were then incubated at 37° C. for 96 hours, and the luminescence values for the t=96 hours samples were then determined. For data analysis, the t=0 values were subtracted from the t=96 hours values for treated and untreated samples. The differences in luminescence in percent between substance-treated samples and control values were used to determine the growth inhibition in percent.
(§2) The substances were tested in the following cell lines which represent the stated indications in an exemplary manner: […]

human ACC1 = test: Human ACC1 enzyme assay (ADP-Glo); type: biochemical
Tetranychus urticae = test: Tetranychus test, OP-resistant (TETRUR spray treatment); type: in vivo; conditions: Tetranychus urticae, 144 h, read-out: effect (kill of spider mites)
[1] = Membrane affinity logMA (MA-Transil); type: physicochemical; conditions: buffer pH 7.4
[2] = Pharmacokinetic parameters in the rat (i.v. and intragastric); type: in vivo; conditions: for clearance / Vd / half-life: male, iv; for clearance: read-out: CLplasma (converted); for Vd: read-out: Vss; for half-life: read-out: t½ (converted)
Protocol: For this, the test substances were applied in dissolved form both for intravenous, and for intragastric application, wherein compatible solubilizers such as PEG400 and/or ethanol were used in a compatible amount.
(§3) The test substances were applied at a dose of 0.1-1 mg/kg. Administration was as a bolus injection in the male rat and as an infusion in the female dog (15 min). At various time points after the bolus injection, and before and after the 15-minute infusion, blood samples of about 100-150 μl were removed via a catheter either from the jugular vein (rat) or from the saphenous vein (dog). Lithium-heparin was added as anticoagulant to the blood samples and they were stored in a refrigerator until required for further processing. After centrifugation of the samples for 15 min at 3000 rpm, an aliquot of 100 μl was taken from the supernatant (plasma) and was precipitated by adding 400 μl of cold ACN or methanol (absolute). The precipitated samples were frozen-out at 20° C. overnight, then centrifuged again at 3000 rpm for 15 min, before 150 μl of the clear supernatant were removed to determine the concentration. The analysis was effected by means of an Agilent 1200 HPLC system with connected LCMS/MS detection.
Calculation of the PK parameters (using PK calculation software, e.g. WinNonLin®): CLplasma: total plasma clearance of the test substance (in l*kg/h); CLblood: total blood clearance of the test substance (in l*kg/h),
where (CLblood=CLplasma*Cp/Cb); Vss: apparent steady-state distribution volume (in 1/kg); t1/2: half-life within a specified interval (here: terminal t1/2, in h); AUCnorm: area under the plasma concentration time profile from time point zero extrapolated to infinity divided by the dose normalized for body weight (in kg*l/h); AUC(0-tn)norm: integrated area under the plasma concentration time profile from time point zero until the last time point at which a plasma concentration was measurable, divided by the dose normalized for body weight (in kg*l/h); Cmax: maximum concentration of the test substance in the plasma (in μg/l); Cmax,norm: maximum concentration of the test substance in the plasma divided by the dose normalized for body weight (in kg/1); Cb/Cp: ratio of the blood to plasma concentration distribution.
as §3, with “administered to fasting male rats or female dogs” for “applied”, “0.3-1 mg/kg intragastrically” for “0.1-1 mg/kg. Administration was”, “using a feeding tube.” for “injection in the male rat and as an infusion in the female dog (15 min).”, “administration,” for “the bolus injection, and before and after the 15-minute infusion,”, “−20°” for “20°”, “centrifuged” for “centrifuged again”
Calculation of the PK Parameters (Using PK Calculation Software, e.g. WinNonLin®): […]

[3] = biological target: human serum albumin (HSA) (Homo sapiens, UniProt P02768); test: Protein binding to human serum albumin (HSA-Transil)
Chain of human serum albumin (HSA) (P02768 25-609): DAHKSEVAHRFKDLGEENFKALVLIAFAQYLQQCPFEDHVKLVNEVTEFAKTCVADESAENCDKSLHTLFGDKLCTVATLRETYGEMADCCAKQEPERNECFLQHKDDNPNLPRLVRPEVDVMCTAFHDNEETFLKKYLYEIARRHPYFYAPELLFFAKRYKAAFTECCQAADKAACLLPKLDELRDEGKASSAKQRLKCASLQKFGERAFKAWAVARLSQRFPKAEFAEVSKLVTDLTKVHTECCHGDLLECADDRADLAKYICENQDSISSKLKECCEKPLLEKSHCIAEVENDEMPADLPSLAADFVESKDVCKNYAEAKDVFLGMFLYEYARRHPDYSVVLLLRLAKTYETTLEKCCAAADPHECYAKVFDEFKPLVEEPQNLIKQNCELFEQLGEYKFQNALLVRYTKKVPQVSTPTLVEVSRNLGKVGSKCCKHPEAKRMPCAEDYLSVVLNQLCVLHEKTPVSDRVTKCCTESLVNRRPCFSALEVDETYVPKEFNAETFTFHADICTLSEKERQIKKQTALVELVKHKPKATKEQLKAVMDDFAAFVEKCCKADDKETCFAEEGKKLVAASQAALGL

H460 = test: Tumour cell proliferation, CellTiter-Glo, 96-hour incubation, H460; type: cell-based; conditions: Homo sapiens, NCI-H460, 96 h, read-out: H460 IC50
Protocol: as §1, §2

KM12 = test: Tumour cell proliferation, CellTiter-Glo, 96-hour incubation, KM12; type: cell-based; conditions: Homo sapiens, KM12, 96 h, read-out: KM12 IC50
Protocol: as §1, §2

Phaedon cochleariae = test: Phaedon test (PHAECO spray treatment); conditions: 500 g/ha, after 7 days
[4] = Plasma protein binding by equilibrium dialysis, rat; type: in vitro ADME; conditions: read-out: fu (rat)
Protocol: The binding of test substances to plasma proteins is determined by equilibrium dialysis by means of the Ht-dialysis apparatus (96-well) made of Teflon and a semipermeable membrane (regenerated cellulose, MWCO 12-14K). This separates 150 μl each of a plasma side and a buffer side (50 mM phosphate buffer). The test substance is added in 2 concentrations (usually 3 and 0.3 μM) to the plasma side and binds to plasma proteins. The unbound fraction of the test substance passes through the membrane and is distributed on either side until equilibrium is established (after approx. 6-8 h at 37° C.). The substance concentration on the buffer side and the plasma side is determined by LC-MS analysis. For this, both sides are brought by dilution with buffer or plasma to the same matrix (10% plasma) and then precipitated with methanol. The free (unbound) fraction (fu) is calculated from the quotient of the buffer and plasma concentration. Stability tests and recovery tests are run concurrently as controls. In addition, the substance in buffer is dialysed against buffer, to check the nonspecific binding to apparatus and membrane and establishment of equilibrium. Because during incubation the osmotic pressure of the plasma proteins leads to dilution of the plasma (volume shift), this possible error is determined by weighing blank plasma samples and is included in the calculation of fu. Establishment of equilibrium and plasma stability should have a value not lower than 80% and the recovery should be at least 30%. A free fraction of <1% is regarded as high, between 1 and 10% as moderate and >10% as low plasma protein binding.

Row | SMILES | IC50 (PC3) [nM] | Selectivity ACC1 vs. ACC2 (mean of the individual measurements ± standard deviation) (human ACC1) | pest or weed control at 100 g/ha (Tetranychus urticae) [%] | logMA [1] | CLblood [2] [mL/min/kg] | F [2] [%] | clearance ([2]; in vivo) [mL/min/kg] | Vd ([2]; in vivo) [L/kg] | half-life ([2]; in vivo) [h] | Kd [3] [nM] | IC50 (H460) [nM] | IC50 (KM12) [nM] | effect (kill of beetle larvae) (Phaedon cochleariae) [%] | fraction unbound [4] | clearance ([2]; plasma) [mL/min/kg] | Vd ([2]; plasma) [L/kg] | half-life ([2]; plasma) [h]
1 | Cc1ccc(-c2ccc(Cl)cc2)cc1C1=C(O)C2(CCC(F)(F)CC2)NC1=O [Example 1-2, 3-(4′-Chloro-4-methylbiphenyl-3-yl)-8,8-difluoro-4-hydroxy-1-azaspiro[4.5]dec-3-en-2-one] | 50 | 13.4 ± 4.5 | 100 | 1.83 (1.7-1.9, n = 3) | 0.2 | 123 | 0.1 | 0.36 | 52 | 3860 | 134 | 58 | 100 | – | – | – | –
2 | Cc1ccc(-c2ccc(Cl)c(F)c2)cc1C1=C(O)C2(CCC(F)(F)CC2)NC1=O [Example 1-1, 3-(4′-Chloro-3′-fluoro-4-methylbiphenyl-3-yl)-8,8-difluoro-4-hydroxy-1-azaspiro[4.5]dec-3-en-2-one] | 39 | – | 90 | – | 0.367 | 95 | – | – | – | 3040 | 131 | 28 | 100 | 0.0027 | 0.167 | 0.55 | 40

— patent US20140011853A1, “SUBSTITUTED 3-(BIPHENYL-3-YL)-8,8-DIFLUORO-4-HYDROXY-1-AZASPIRO[4.5]DEC-3-EN-2-ONES FOR THERAPY” (BAYER INTELLECTUAL PROPERTY GMBH, priority 2011, published 2014)
